# PubChem BioAssay AID696 (Sanford-Burnham Center for Chemical Genomics, 2007)
# pEC50: −log10 of the molar value.
# Target: Alkaline phosphatase, placental type (Homo sapiens) (UniProt P05187)
# Test: activation of human placental alkaline phosphatase – biochemical, luminescence, HTS (AID 696)
# Settings: purified PLAP enzyme, luminescent substrate read-out
# Chain of Alkaline phosphatase, placental type (Homo sapiens) (P05187 whole entry, looked up): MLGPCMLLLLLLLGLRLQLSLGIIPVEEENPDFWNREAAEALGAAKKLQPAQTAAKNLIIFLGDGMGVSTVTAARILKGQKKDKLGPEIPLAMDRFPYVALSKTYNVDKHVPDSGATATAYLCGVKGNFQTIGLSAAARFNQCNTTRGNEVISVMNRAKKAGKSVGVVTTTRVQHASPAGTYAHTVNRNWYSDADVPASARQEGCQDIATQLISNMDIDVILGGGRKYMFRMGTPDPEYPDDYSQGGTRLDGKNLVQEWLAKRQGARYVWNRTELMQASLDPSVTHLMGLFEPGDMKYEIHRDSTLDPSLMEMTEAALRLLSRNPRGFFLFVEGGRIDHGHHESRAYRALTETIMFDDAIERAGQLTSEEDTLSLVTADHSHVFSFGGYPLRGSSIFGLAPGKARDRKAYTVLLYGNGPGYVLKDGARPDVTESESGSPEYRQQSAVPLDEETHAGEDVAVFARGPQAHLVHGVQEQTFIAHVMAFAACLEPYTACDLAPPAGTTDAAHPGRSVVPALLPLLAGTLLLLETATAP
row,SMILES,pEC50
1,O=C1Nc2ccc(Br)cc2/C1=N/N=C/C1=C(N2CCOCC2)C(=C\c2ccccc2)/CC1,4.42
2,O=P(/C(=N/O)N1CCCCC1)(N1CCOCC1)N1CCOCC1,4.26
3,c1ccc(CSCCc2ccncc2)cc1,4.17
4,CCn1c(SCC(=O)c2ccc(O)c(O)c2)nnc1-c1ccccc1,4.10
5,CCOc1ccc(CNC(=S)N/N=C\c2ccc([N+](=O)[O-])cc2)cc1,4.96
6,Clc1ccc(-c2cc(CSc3cccc(Cl)c3)on2)cc1,4.16
7,O=C(Cn1c(=O)n(-c2ccccc2)c(=O)c2sccc21)N1CCCC1,5.58
8,COc1ccc(-c2cc(NCc3ccccn3)n3ncnc3n2)cc1,4.18
9,N#CC(c1ccc(F)cc1)c1ccc(C(=O)c2ccc(F)cc2)cc1 (centres undefined),4.64
10,Cc1cccc(N2C(=O)NC(=O)/C(=C\c3cnn(-c4ccccc4)c3)C2=O)c1,5.96
11,O=C(C[n+]1cc2ccccc2c2ccccc21)c1ccccc1,4.03
12,COc1ccc(-c2nnc(-c3ccc(Br)o3)o2)cc1OC,4.59
13,N#CC(c1ccc(F)cc1)c1ccc(C(=O)c2ccccc2)cc1 (centres undefined),5.10
14,Cc1ccc(/C=N/NC(=O)c2c[nH]c3ccccc23)o1,4.23
15,Cc1cc(Nc2ccc(Cl)cc2)n(-c2cccc(Cl)c2)n1,4.29
16,Cc1ccc(C)c(NC(=S)NC(NC(=O)Cc2cccc3ccccc23)C(Cl)(Cl)Cl)c1 (centres undefined),4.20
17,CCCn1c(CNc2ccc(Br)cc2)nc2ccccc21,4.31
18,O=C(NC1(C(F)(F)F)Oc2ccc(Cl)cc2O1)N1CCC2(CC1)OCCO2 (centres undefined),4.21
19,c1ccc(Nc2cccc(Nc3ccccc3)n2)cc1,4.43
20,COc1cccc(NC(=O)c2nnn(CCc3ccccc3)c2N)c1,4.08

row,SMILES,pEC50
1,O=[N+]([O-])c1ccc(Sc2nnnn2-c2ccccc2)c(Cl)c1,4.58
2,Cc1nn(C)cc1/C=N\NC(=O)c1ccc2c(c1)c(C)c(C)n2Cc1ccccc1,4.14
3,COC(=O)c1cn[nH]c1NC(=S)Nc1ccccc1C,4.68
4,CCCn1c(C(O)c2ccc3c(c2)OCO3)nc2ccccc21 (centres undefined),4.75
5,COc1cccc(NCc2cc3c(C(C)(C)C)nn(-c4ccccc4)c3[nH]c2=O)c1,4.11
6,O=C(Cn1c(=O)oc2cc(S(=O)(=O)N3CCCC3)ccc21)NCc1ccc(F)cc1,6.34
7,Cc1ccc(-n2c([O-])nc(-[n+]3ccccc3)c2C=O)cc1,5.04
8,O=P(CCCCCCCCCP(=O)(c1ccccc1)c1ccccc1)(c1ccccc1)c1ccccc1,4.00
9,CC(C)n1c(-c2ccc(N(C)C)cc2)nc2ccccc21,5.07
10,CCCCOC(=O)C(C)Nc1n[nH]c(=S)[nH]c1=O (centres undefined),4.67
11,CCCCN1CCc2c1nc1ccc(Br)cc1c2N,4.11
12,Cc1ccc(C2CC(c3ccc(Cl)cc3)=NNC2=O)cc1 (centres undefined),6.69
13,CCC(=O)Nc1ccccc1C(=O)OCC(=O)c1ccccc1,4.41
14,O=C(Oc1ccc2c(=O)c(Oc3ccc4ccccc4c3)coc2c1)c1cncc(Br)c1,4.13
15,CCOC(=O)c1c(C)[nH]c(C(=O)CSc2nnc(CC(C)c3ccccc3)o2)c1C (centres undefined),4.11
16,O=C(Nc1ccccc1)NC1(C(=O)N2CCN(C(=O)c3ccco3)CC2)CCCCC1,4.45
17,CC(C)N=c1scc(-c2ccco2)n1/N=C/c1ccc(O)c(O)c1,4.32
18,CC1CC(C)CN(CC(C)(C)NS(=O)(=O)c2ccc(Cl)cc2)C1 (centres undefined),4.61
19,CC1Cc2ccccc2N1C(=O)CSc1nnc(Cc2ccccc2)n1CCc1ccccc1 (centres undefined),4.06
